Laboratory results from patent US20080145383A1, “Method for Solubilizing Peptide Mixtures” (priority 2004, published 2008).
Peptide text beside a SMILES is read from it.

Key:
[1] = Solubility of the single peptides in water and DMSO; type: physicochemical; details: single peptide
Method: In the scope of the present invention peptides are characterised by their solubility. Peptides which are soluble in an aqueous solution less than 100 μg/ml are considered hydrophobic. On the other hand hydrophilic peptides dissolve in a buffered aqueous solution in concentration over 100 μg/ml. Hydrophilic peptides may further be divided into cationic (>20% basic amino acids including lysine, arginine, histidine), anionic (>20% acidic amino acids including aspartic acid, glutamic acid) and hydroxyl-rich peptides (>30% —OH containing amino acids like serine, threonine, tyrosine).
The peptide mixture contains 6 peptides (see table 1), which show a broad range of solubility. […] Peptides 1236, 1240, and 1242 can sequentially be dissolved in water, provided that the final pH is adjusted to pH 8.5. At lower pH a gel is formed presumably due to charge interactions and/or hydrogen bond formation. This gel can not be sterile filtered as it blocks the filter immediately. However, upon addition of poly-L-arginine (pR) to the aqueous solution of the three peptides a precipitate forms that makes sterile filtration of the solution impossible.
As with the formulation of example 1, for the manufacturing of a suspension formulation it is necessary first to dissolve peptides 83 and 84 in an aqueous buffer solution and peptides 87, 89, and 1426 in DMSO. After sterile filtration the solutions can be combined to form the final suspension.

[2] = suspension formulation stored at room temperature (Figure C)

Compound | solubility in DMSO [1] | solubility in water [1] | solubility in water ([1]; listed as Ipep 84) | degradation [2]
CC[C@H](C)[C@H](NC(=O)[C@H](Cc1ccc(O)cc1)NC(=O)CNC(=O)[C@H](CCSC)NC(=O)[C@H](CC(C)C)NC(=O)[C@@H](N)CC(=O)O)C(=O)N1CCC[C@H]1C(=O)N[C@@H](C)C(=O)N[C@H](C(=O)O)C(C)C [Peptide 87] (H-DLMGYIPAV-OH; N-terminus and C-terminus assumed) | dissolve easily in DMSO | poorly water soluble |  | 
CC[C@H](C)[C@H](N)C(=O)NCC(=O)N[C@@H](CC(C)C)C(=O)NCC(=O)N[C@@H](CCCCN)C(=O)N[C@H](C(=O)N[C@@H](CC(C)C)C(=O)N[C@H](C(=O)N[C@@H](CC(=O)O)C(=O)N[C@H](C(=O)N[C@@H](CC(C)C)C(=O)N[C@@H](C)C(=O)NCC(=O)N[C@@H](Cc1ccc(O)cc1)C(=O)NCC(=O)N[C@@H](C)C(=O)NCC(=O)N[C@H](C(=O)N[C@@H](C)C(=O)NCC(=O)N[C@@H](C)C(=O)N[C@@H](CC(C)C)C(=O)N[C@H](C(=O)N[C@@H](C)C(=O)N[C@@H](Cc1ccccc1)C(=O)N[C@@H](CCCCN)C(=O)O)C(C)C)C(C)C)[C@@H](C)CC)C(C)C)C(C)C [Peptide 1798] (H-IGLGKVLVDILAGYGAGVAGALVAFK-OH; N-terminus and C-terminus assumed) |  | water soluble on its own |  | 
CC(C)C[C@H](NC(=O)[C@@H](NC(=O)[C@H](CC(C)C)NC(=O)[C@@H](NC(=O)[C@H](CCCCN)NC(=O)[C@H](Cc1ccc(O)cc1)NC(=O)CN)C(C)C)C(C)C)C(=O)N[C@@H](CC(N)=O)C(=O)N1CCC[C@H]1C(=O)N[C@@H](CO)C(=O)N[C@H](C(=O)N[C@@H](C)C(=O)N[C@@H](C)C(=O)N[C@H](C(=O)O)[C@@H](C)O)C(C)C [Peptide 84] | soluble | soluble | water soluble | 
CC[C@H](C)[C@H](NC(=O)[C@@H](NC(=O)[C@H](Cc1ccccc1)NC(=O)[C@H](CC(N)=O)NC(=O)[C@@H](NC(=O)[C@@H](NC(=O)[C@H](CS)NC(=O)[C@@H]1CCCN1C(=O)[C@H](Cc1ccc(O)cc1)NC(=O)[C@H](Cc1c[nH]cn1)NC(=O)[C@H](Cc1c[nH]c2ccccc12)NC(=O)[C@H](CC(C)C)NC(=O)[C@H](CCCNC(=N)N)NC(=O)[C@H](Cc1ccc(O)cc1)NC(=O)[C@@H]1CCCN1C(=O)[C@H](Cc1ccc(O)cc1)NC(=O)[C@@H](N)CC(=O)O)[C@@H](C)O)C(C)C)[C@@H](C)O)C(=O)N[C@@H](Cc1ccccc1)C(=O)N[C@@H](CCCCN)C(=O)N[C@H](C(=O)O)C(C)C [Peptide 1846] (H-DYPYRLWHYPCTVNFTIFKV-OH; N-terminus and C-terminus assumed) |  |  |  | oxidation of Ipep 1846 to its dimer
CC[C@H](C)[C@H](NC(=O)[C@@H](NC(=O)[C@H](C)NC(=O)[C@@H](NC(=O)[C@H](CO)NC(=O)[C@H](CO)NC(=O)[C@H](CCCCN)NC(=O)[C@H](CC(C)C)NC(=O)[C@H](CC(=O)O)NC(=O)[C@H](CO)NC(=O)[C@@H](N)C(C)C)[C@@H](C)O)C(C)C)C(=O)N1CCC[C@H]1C(=O)NCC(=O)N[C@@H](Cc1ccc(O)cc1)C(=O)N1CCC[C@H]1C(=O)N[C@H](C(=O)N[C@@H](C)C(=O)NCC(=O)N[C@@H](CCC(N)=O)C(=O)N[C@H](C(=O)O)C(C)C)C(C)C [Peptide 1240] (H-VSDLKSSTAVIPGYPVAGQV-OH; N-terminus and C-terminus assumed) | can also be dissolved in DMSO | water soluble |  | 
CC[C@H](C)[C@H](NC(=O)[C@H](CCC(N)=O)NC(=O)CNC(=O)CNC(=O)CNC(=O)[C@@H]1CCCN1C(=O)[C@H](Cc1ccccc1)NC(=O)[C@@H](N)CCCCN)C(=O)N[C@H](C(=O)NCC(=O)NCC(=O)N[C@H](C(=O)N[C@@H](Cc1ccc(O)cc1)C(=O)N[C@@H](CC(C)C)C(=O)N[C@@H](CC(C)C)C(=O)N1CCC[C@H]1C(=O)N[C@@H](CCCNC(=N)N)C(=O)N[C@@H](CCCNC(=N)N)C(=O)NCC(=O)N1CCC[C@H]1C(=O)N[C@@H](CCCNC(=N)N)C(=O)N[C@@H](CC(C)C)C(=O)O)C(C)C)C(C)C [Peptide 83] (H-KFPGGGQIVGGVYLLPRRGPRL-OH; N-terminus and C-terminus assumed) | soluble | soluble |  | 
CC[C@H](C)[C@H](NC(=O)CNC(=O)[C@H](CO)NC(=O)[C@@H](NC(=O)[C@H](Cc1ccccc1)NC(=O)[C@H](CC(N)=O)NC(=O)[C@H](Cc1c[nH]c2ccccc12)NC(=O)[C@H](CCSC)NC(=O)[C@@H](N)Cc1c[nH]cn1)[C@@H](C)CC)C(=O)N[C@@H](CCC(N)=O)C(=O)N[C@@H](Cc1ccc(O)cc1)C(=O)N[C@@H](CC(C)C)C(=O)N[C@@H](C)C(=O)NCC(=O)N[C@@H](CC(C)C)C(=O)N[C@@H](CO)C(=O)N[C@H](C(=O)N[C@@H](CC(C)C)C(=O)N1CCC[C@H]1C(=O)NCC(=O)N[C@@H](CC(N)=O)C(=O)N1CCC[C@H]1C(=O)N[C@@H](C)C(=O)O)[C@@H](C)O [Peptide 1426] (H-HMWNFISGIQYLAGLSTLPGNPA-OH; N-terminus and C-terminus assumed) | only soluble in DMSO |  |  | 
CC[C@H](C)[C@H](NC(=O)[C@H](CC(N)=O)NC(=O)[C@@H](NC(=O)[C@@H](NC(=O)CNC(=O)[C@H](C)NC(=O)[C@H](C)NC(=O)[C@H](C)NC(=O)[C@H](CCC(N)=O)NC(=O)[C@H](C)NC(=O)[C@@H](NC(=O)CNC(=O)[C@H](C)NC(=O)CNC(=O)[C@H](CO)NC(=O)CNC(=O)[C@@H](N)[C@@H](C)O)[C@@H](C)CC)[C@@H](C)O)C(C)C)C(=O)O [Peptide 1236] | does not dissolve in DMSO | slowly dissolves in water |  | 
CC[C@H](C)[C@H](NC(=O)[C@H](CC(N)=O)NC(=O)[C@@H](NC(=O)[C@H](CC(N)=O)NC(=O)[C@@H](N)Cc1ccc(O)cc1)[C@@H](C)CC)C(=O)N[C@@H](CO)C(=O)N[C@@H](CC(C)C)C(=O)N1CCC[C@H]1C(=O)N[C@@H](CO)C(=O)N[C@@H](Cc1ccc(O)cc1)C(=O)N[C@@H](Cc1ccc(O)cc1)C(=O)N1CCC[C@H]1C(=O)N[C@@H](CC(=O)O)C(=O)N[C@@H](CCC(N)=O)C(=O)N[C@@H](CCCCN)C(=O)N[C@@H](CO)C(=O)N[C@@H](CC(C)C)C(=O)N[C@@H](CCC(=O)O)C(=O)N[C@@H](CC(N)=O)C(=O)N[C@@H](Cc1ccc(O)cc1)C(=O)O [Peptide 1242] (H-YNINISLPSYYPDQKSLENY-OH; N-terminus and C-terminus assumed) | can also be dissolved in DMSO | water soluble |  | 
CC[C@H](C)[C@H](NC(=O)[C@H](CCC(N)=O)NC(=O)CNC(=O)CNC(=O)CNC(=O)[C@@H]1CCCN1C(=O)[C@H](Cc1ccccc1)NC(=O)[C@@H](N)CCCCN)C(=O)N[C@H](C(=O)NCC(=O)NCC(=O)N[C@H](C(=O)N[C@@H](Cc1ccc(O)cc1)C(=O)N[C@@H](CC(C)C)C(=O)N[C@@H](CC(C)C)C(=O)N1CCC[C@H]1C(=O)N[C@@H](CCCNC(=N)N)C(=O)N[C@@H](CCCNC(=N)N)C(=O)NCC(=O)N1CCC[C@H]1C(=O)N[C@@H](CCCNC(=N)N)C(=O)N[C@@H](CC(C)C)C(=O)NCC(=O)N[C@H](C(=O)N[C@@H](CCCNC(=N)N)C(=O)N[C@@H](C)C(=O)N[C@H](C(=O)N[C@@H](CCCNC(=N)N)C(=O)N[C@@H](CCCCN)C(=O)O)[C@@H](C)O)C(C)C)C(C)C)C(C)C [Peptide 1835] (H-KFPGGGQIVGGVYLLPRRGPRLGVRATRK-OH; N-terminus and C-terminus assumed) |  | water soluble |  | 
CC[C@H](C)[C@H](N)C(=O)N[C@@H](CC(=O)O)C(=O)N[C@@H](CCC(=O)O)C(=O)N[C@@H](CC(C)C)C(=O)N[C@@H](CCCCN)C(=O)N[C@H](C(=O)N[C@@H](CC(N)=O)C(=O)N[C@@H](CO)C(=O)N[C@@H](CO)C(=O)N[C@@H](CC(C)C)C(=O)N[C@@H](CC(C)C)C(=O)N[C@H](C(=O)N[C@@H](CO)C(=O)N[C@H](C(=O)N[C@@H](CC(C)C)C(=O)N[C@H](C(=O)N[C@@H](Cc1ccc(O)cc1)C(=O)N[C@@H](Cc1c[nH]cn1)C(=O)N[C@H](C(=O)N[C@H](C(=O)O)C(C)C)C(C)C)[C@@H](C)O)[C@@H](C)CC)[C@@H](C)O)[C@@H](C)O [Peptide 1235] (H-IDELKTNSSLLTSILTYHVV-OH; N-terminus and C-terminus assumed) | only dissolve in DMSO | hydrophobic |  | 
CC(C)C[C@H](NC(=O)[C@H](Cc1ccccc1)NC(=O)[C@@H](N)CC(N)=O)C(=O)N[C@@H](CC(C)C)C(=O)N1CCC[C@H]1C(=O)N[C@@H](CC(=O)O)C(=O)N[C@@H](C)C(=O)N[C@@H](CCC(N)=O)C(=O)N[C@@H](C)C(=O)N[C@@H](C)C(=O)N[C@@H](C)C(=O)N[C@@H](C)C(=O)NCC(=O)N[C@@H](Cc1ccccc1)C(=O)N[C@@H](C)C(=O)N[C@@H](CO)C(=O)N[C@@H](CCCCN)C(=O)O [Peptide 1241] (H-NFLLPDAQAAAAGFASK-OH; N-terminus and C-terminus assumed) | only dissolve in DMSO | hydrophobic |  | 
